From patent publication US20250367222A1, “TREATMENTS FOR CANCERS DRIVEN BY DNAJB1-PRKACA GENE FUSIONS” (Wisconsin Alumni Research Foundation, priority 2024, published 2025)
“Also recorded” adds a separate entry of the source.

Assays:
Assay type in all cases: cell-based, human
OAT and VCAN = test: RT-qPCR of other FLC-specific genes in H33 cells; conditions: response to SY-5609
Description: HepG2 and HepG2^DNAJB1-PRKACA clones were incubated with RPMI1640 cell culture for 24 hours, treated with SY-5609 (1-300 nM) (MedChemExpress), YKL-5-124 (1-300 nM) (MedChemExpress) or vehicle (DMSO) for 24 hours. Total RNA was isolated from cells using the Qiagen RNeasy kit (Qiagen, Valencia CA). The isolated RNAs (20 ng) were reverse-transcribed and quantitative PCR (qPCR) were perform using GoTaq Probe 1-Step RT-PCR system (Promega) in a QuantStudio 7 Flex Real-Time PCR System (Applied Biosystems). The reverse-transcription was conducted at a temperature of 45° C. for 15 minutes, and 95° C. for 2 minutes during one cycle. The denaturation, annealing and extension were performed at 95° C. for 15 seconds and 60° C. for 1 minutes (45 cycles). The mRNA levels were measured with Taqman Gene Expression System (FAM-MGB) (Applied Biosystems) (Assay ID: DNAJB1: Hs00356730_g1, DNAJB1-PRKACA fusion: Hs05061318_ft, SLC16A14: Hs00541300_m1, LINC00473: Hs00293257_m1, VCAN: Hs00171642_m1, OAT: Hs00236852_m1, GAPDH: Hs02786624_g1, B-Actin: Hs01060665_g1). […] GAPDH and β-Actin mRNA levels were used as internal control and the data were analyzed using the ^ΔΔCt method.

H33 cells = test: Caspase 3/7 assay (Caspase-Glo); conditions: SY-5609 100 nM, 1 μM, 10 μM, 24 hours, all p<0.0001
Description: (§1) To measure the apoptosis activity in HepG2 cells and HepG2^DNAJB1-PRKACA clones, Caspase-Glo 3/7 and 8 assay systems (Promega) were used. Approximately 2.0×10^3 cells/well were seeded in a 96-well plate and (1) incubated in RPMI1640 culture medium over 4 days at 37° C. and 5% CO2 or (2) incubated in RPMI1640 culture medium containing SY-5609 (0.1-10 μM) (MedChemExpress) or DMSO for 24 hours. After addition of the Caspase-Glo 3/7 or 8 reagent to cell culture medium in 96 well plate and incubation for 30 minutes, luminescence was measured by CLARIOstar Plus microplate reader (BMG Labtech).

H12 clone = test: Caspase 3/7 assay (Caspase-Glo); conditions: 24 hours
Description: as §1

CC1(C)CC[C@H](Nc2ncc(C(F)(F)F)c(-c3c[nH]c4c(P(C)(C)=O)c(C#N)ccc34)n2)CN1 [SY-5609]
OAT and VCAN expression (OAT and VCAN): no decrease in expression; also recorded: not impacted | caspase 3/7 activity compared to HepG2 cells (H33 cells): significant increase in caspase 3/7 activity | caspase 3/7 activity compared to HepG2 cells (H12 clone): confirmed
